{"source": "patent US8394832B2", "about": "“Methods and compositions using immunomodulatory compounds for the treatment of immunodeficiency disorders” (Celgene Corporation, priority 2004, dated 2013)", "type_in_all_cases": "cell-based, human", "key": {"CD40": {"test_system": "CD40", "experiment": "FACS analysis of CD40 expression on B cells", "description": "(§1) Human buffy coat (50 ml) was diluted with 50 ml sterile PBS (Ca^++, Mg^++ free), and mixed gently. A 25 ml aliquot of diluted buffy coat was transferred to each 50 ml centrifuge tube, and Histopaque-1077 (14 ml, #1077-1, Sigma) was gently layered into the bottom of the tube. The sample was centrifuged at 2,000 rpm for 30 min at room temperature. The interface containing mononuclear cells was transferred into 50 ml centrifuge tube, and washed once with PBS (1200 rpm, 5 min). The supernatant was discarded. Cell pellet was resuspended in Miltenyi buffer. Anti-CD19^+ microbeads were added to the suspension (10^7 cells in 80 μl of buffer, 20 μl antibody beads for 10^7 cells) and incubated for 15 min at 4° C. Cell pellet was washed once and resuspended in 1 ml Miltenyi buffer. The cell suspension was added to the magnetic column, washed with 10 ml Miltenyi buffer in the column. CD19^+ cells are released by 1 ml Miltenyi Buffer without magnetic field. CD19^+ cells were washed twice with RPMI complete medium. B cells (2×10^5) were plated in 96 well plate. […]\nIn addition to the suppression of IL-4 induced proliferation, CD40+IL-4 induced HLA-DR expression was also examined. B cells were treated by 1,3-dioxo-(2,6-dioxopiperidin-3-yl)-4-aminoisoindoline with CD40L+IL-4 for 72 hours, and the cell surface expression markers CD40 and HLA-DR were measured by FACS. […]"}, "HLA-DR": {"test_system": "HLA-DR", "experiment": "FACS analysis of HLA-DR expression on B cells", "description": "(§2) Human buffy coat (50 ml) was diluted with 50 ml sterile PBS (Ca^++, Mg^++ free), and mixed gently. A 25 ml aliquot of diluted buffy coat was transferred to each 50 ml centrifuge tube, and Histopaque-1077 (14 ml, #1077-1, Sigma) was gently layered into the bottom of the tube. The sample was centrifuged at 2,000 rpm for 30 min at room temperature. The interface containing mononuclear cells was transferred into 50 ml centrifuge tube, and washed once with PBS (1200 rpm, 5 min). The supernatant was discarded. Cell pellet was resuspended in Miltenyi buffer. Anti-CD19^+ microbeads were added to the suspension (10^7 cells in 80 μl of buffer, 20 μl antibody beads for 10^7 cells) and incubated for 15 min at 4° C. Cell pellet was washed once and resuspended in 1 ml Miltenyi buffer. The cell suspension was added to the magnetic column, washed with 10 ml Miltenyi buffer in the column. CD19^+ cells are released by 1 ml Miltenyi Buffer without magnetic field. CD19^+ cells were washed twice with RPMI complete medium. B cells (2×10^5) were plated in 96 well plate.\nB cells were treated with 1 μM 1,3-dioxo-(2,6-dioxopiperidin-3-yl)-4-aminoisoindoline in presence of LPS; CD40 ligand and IL-4; or BAFF for 3 days. The suspension of B cells was washed by PBS once, and incubated with FITC conjugated anti human CD40, PE conjugated anti human CD80, or PerCP-Cy5.5 conjugated anti human HLA-DR for 30 min in the dark. B cells were subject to FACS analysis using BD FACSAria (BD biosciences).\nIn addition to the suppression of IL-4 induced proliferation, CD40+IL-4 induced HLA-DR expression was also examined. B cells were treated by 1,3-dioxo-(2,6-dioxopiperidin-3-yl)-4-aminoisoindoline with CD40L+IL-4 for 72 hours, and the cell surface expression markers CD40 and HLA-DR were measured by FACS. […] In contrast, for the B cells that were treated with BAFF, 1,3-dioxo-(2,6-dioxopiperidin-3-yl)-4-aminoisoindoline increased CD40 expression by 60% and HLA-DR expression by 86% (FIG. 11F). The data are consistent with the previous observation that immunomodulatory compounds have no effect on CD40+IL-4 signaling."}, "TNFα": {"test_system": "TNFα", "experiment": "TNFα ELISA of treated B cells", "conditions": "activated CD19+ cells (FIG. 4)", "description": "as §1\nTNFα levels in 1,3-dioxo-(2,6-dioxopiperidin-3-yl)-4-aminoisoindoline or 1-oxo-(2,6-dioxopiperidin-3-yl)-4-aminoisoindoline treated B cells were determined using TNFα ELISA."}, "IL-6": {"test_system": "IL-6", "experiment": "Measurement of cytokine IL-6 by Luminex in B cells", "description": "as §2\nB cells were treated with 1,3-dioxo-(2,6-dioxopiperidin-3-yl)-4-aminoisoindoline at 60 μM, 6 μM, 0.6 μM, 0.06 μM, 0.006 μM and 0.0006 μM in presence of anti IgM, anti CD40 and IL-4 for 3 days. Supernatant (25 μl) was collected and incubated with 25 μl anti IL-6 beads for about 1 hour. […] The plate was read on Bio-Plex instrument (Bio-Rad)."}, "B cells": {"test_system": "B cells", "experiment": "Morphological changes of activated B cells (phase contrast microscopy)", "conditions": "treated with compound and anti-IgM (FIG. 7B)", "description": "as §2\nB cells were treated with 1,3-dioxo-(2,6-dioxopiperidin-3-yl)-4-aminoisoindoline (FIG. 6) in presence of anti IgM, anti CD40 and IL-4 for 3 days. The images were captured using phase contrast microscopy with MetaMorph software.\nMorphological changes also support IMiDs' costimulation of B cells to drive their proliferation. […]"}, "TLR 9": {"test_system": "TLR 9", "experiment": "TLR 9 expression by FACS array in B cells", "conditions": "0.0006-60 μM, in combination with other stimuli, particularly IgM, 3 days (FIGS. 8A-8D)", "description": "as §2\nB cells were plated in 96 well plate and treated with 1,3-dioxo-(2,6-dioxopiperidin-3-yl)-4-aminoisoindoline at concentrations of 60 μM, 6 μM, 0.6 μM, 0.06 μM, 0.006 μM and 0.0006 μM in presence of stimuli for 3 days. […] B cells were resuspended in 150 μl PBS containing 1% BSA and read in FACS array instrument (BD Bioscience)."}, "STAT6": {"test_system": "STAT6", "experiment": "Western blotting of phospho-STAT6 in IL-4 stimulated CD-19 B cells", "conditions": "B cells pretreated 30 minutes, then 100 ng/ml IL-4 for 30 minutes (FIG. 11D)", "description": "CD-19 B cells (2×10^6/ml) were pretreated with 1,3-dioxo-(2,6-dioxopiperidin-3-yl)-4-aminoisoindoline at 10 μM and 1 μM for 30 minutes. IL-4 (100 ng/ml) was added to cell suspension for 30 minutes, and the cell pellet was washed once by PBS and lysed with 50 μl of the sample buffer. Cell lysates were heated at 100° C. for 5 minutes, and 20 μl of cell lysates were loaded to 4-20% Tris-glycine SDS-PAGE (Invitrogen). The transferred membrane was blotted with 1: 1000 anti-phopho STAT6 antibody (Cell signaling) for overnight at 4° C. prior to secondary HRP conjugated anti rabbit antibody. The signal of the membrane was developed by ECL kit, following the manufacturer's instructions.\nBecause activation of STAT6 is important in IL-4 induced IgE and IgG1 class switching, whether immunomodulatory compounds could inhibit phosphorylation of STAT6 was investigated. B cells were pretreated with 1,3-dioxo-(2,6-dioxopiperidin-3-yl)-4-aminoisoindoline for 30 minutes, then stimulated with 100 ng/ml of IL-4 for 30 minutes. The activation of STAT6 was assessed by anti-phospho-STAT6 (Tyr 641)."}, "[1]": {"conditions": "B cells treated with BAFF (FIG. 11F)"}}, "data": [{"smiles": "Nc1cccc2c1C(=O)N(C1CCC(=O)NC1=O)C2=O", "note": "(centres unmarked) [1,3-dioxo-(2,6-dioxopiperidin-3-yl)-4-aminoisoindoline]", "values": [{"measurement": "increase of CD40 expression", "setting": "CD40; [1]", "value": 60, "unit": "%"}, {"measurement": "CD40 expression", "setting": "CD40; B cells treated with BAFF or LPS, 1 μM, 3 days (FIG. 2A)", "value": "upregulated"}, {"measurement": "increase of HLA-DR expression", "setting": "HLA-DR; [1]", "value": 86, "unit": "%"}, {"measurement": "HLA-DR expression", "setting": "HLA-DR; B cells treated with BAFF or LPS, 1 μM, 3 days (FIG. 2B)", "value": "upregulated"}, {"measurement": "CD40+IL-4 induced HLA-DR expression", "setting": "HLA-DR; B cells with CD40L+IL-4 for 72 hours (FIG. 11E)", "value": "no enhancement"}, {"measurement": "TNFα production in B cells", "setting": "TNFα", "value": "dose dependently enhance"}, {"measurement": "IL-6 expression", "setting": "IL-6; compound alone (FIG. 5A)", "value": "did not enhance"}, {"measurement": "IL-6 expression", "setting": "IL-6; in combination with anti IgM, anti CD40 and IL-4, 3 days, 0.0006-60 μM (FIG. 5B)", "value": "enhanced"}, {"measurement": "morphological changes of B cells", "setting": "B cells", "value": "formed large aggregates"}, {"measurement": "TLR 9 expression", "setting": "TLR 9", "value": "increase"}, {"measurement": "phosphorylation of STAT6 (Tyr 641)", "setting": "STAT6", "value": "block phosphorylation of STAT6"}]}]}
